Assay results reported in article PMC10144994, “Bioactive Metabolite from Endophytic Aspergillus versicolor SB5 with Anti-Acetylcholinesterase, Anti-Inflammatory and Antioxidant Activities: In Vitro and In Silico Studies” (Microorganisms, 2023).

Biological target: T1, LOX-1 (lipoxygenase from Glycine max, type I-B) (Glycine max, UniProt P08170)
T1 construct: gene LOX1.1
T1 sequence (P08170 1-839): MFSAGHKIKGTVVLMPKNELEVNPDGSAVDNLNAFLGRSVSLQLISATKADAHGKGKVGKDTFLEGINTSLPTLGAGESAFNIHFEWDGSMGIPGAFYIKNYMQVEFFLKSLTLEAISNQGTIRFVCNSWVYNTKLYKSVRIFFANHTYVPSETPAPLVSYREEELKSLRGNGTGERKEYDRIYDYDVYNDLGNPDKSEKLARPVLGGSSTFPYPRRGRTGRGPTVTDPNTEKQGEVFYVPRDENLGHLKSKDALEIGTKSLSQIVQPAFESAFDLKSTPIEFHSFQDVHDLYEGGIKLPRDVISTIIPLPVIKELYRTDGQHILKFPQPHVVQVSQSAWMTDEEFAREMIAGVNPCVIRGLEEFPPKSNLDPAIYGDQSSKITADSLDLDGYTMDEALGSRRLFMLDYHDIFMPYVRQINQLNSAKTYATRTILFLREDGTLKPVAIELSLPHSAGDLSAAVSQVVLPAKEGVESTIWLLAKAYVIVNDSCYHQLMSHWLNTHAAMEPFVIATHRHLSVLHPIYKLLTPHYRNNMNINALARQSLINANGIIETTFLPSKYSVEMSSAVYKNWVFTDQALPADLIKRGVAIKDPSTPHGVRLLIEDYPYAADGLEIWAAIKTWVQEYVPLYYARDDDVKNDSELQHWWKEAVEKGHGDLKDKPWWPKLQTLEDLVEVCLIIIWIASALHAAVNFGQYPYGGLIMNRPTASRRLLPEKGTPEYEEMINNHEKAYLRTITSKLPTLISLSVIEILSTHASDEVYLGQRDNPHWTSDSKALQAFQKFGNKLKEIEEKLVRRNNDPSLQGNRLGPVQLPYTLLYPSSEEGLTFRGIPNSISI
Assay: soybean LOX, linoleic acid substrate, absorbance at […] nm
Assay type: biochemical

**Q.** With `COc1cc(O)c2c(c1)C(=O)c1cc(C)cc(O)c1C2=O` [C1, 1,8-dihydroxy-3-methoxy-6-methylanthracene-9,10-dione] as the molecule, how does the IC50 read?
**A.** 61.7 µM
